Our source for the IC50 values is article PMC9607159, “High-Resolution Bioassay Profiling with Complemented Sensitivity and Resolution for Pancreatic Lipase Inhibitor Screening” (Molecules, 2022).

The assay deals with T1, pancreatic lipase (PL) (Sus scrofa, UniProt P00591).
T1 construct: gene PNLIP
T1 sequence (P00591 1-450): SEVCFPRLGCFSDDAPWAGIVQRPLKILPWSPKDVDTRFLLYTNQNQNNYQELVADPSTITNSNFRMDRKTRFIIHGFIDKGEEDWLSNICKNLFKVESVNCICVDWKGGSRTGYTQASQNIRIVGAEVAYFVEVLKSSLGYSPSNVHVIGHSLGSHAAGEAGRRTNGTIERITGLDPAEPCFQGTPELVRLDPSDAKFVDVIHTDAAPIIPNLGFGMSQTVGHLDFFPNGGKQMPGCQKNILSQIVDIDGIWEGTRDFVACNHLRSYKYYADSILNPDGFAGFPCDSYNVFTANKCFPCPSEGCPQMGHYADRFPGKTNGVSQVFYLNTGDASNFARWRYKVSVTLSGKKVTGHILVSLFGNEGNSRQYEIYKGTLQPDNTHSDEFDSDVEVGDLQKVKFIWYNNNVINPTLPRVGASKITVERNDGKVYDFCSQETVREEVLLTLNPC
Briefly: fluorogenic 4-MUO lipase assay dose-response; also nanofractionation bioassay profiling and ligand fishing with PL magnetic beads. In kind it is biochemical.

Each structure is given as a SMILES string. Like-named read-outs stand apart in the source and are kept apart here.

Take `O=c1cc(-c2ccc(O)c(O)c2)oc2cc(O)cc(O)c12` [luteolin]: half-maximal inhibition (IC50) was put at 30.6 µM.

Regarding `O=C(O[C@@H]1Cc2c(O)cc(O)cc2O[C@@H]1c1cc(O)c(O)c(O)c1)c1cc(O)c(O)c(O)c1` [(-)-Epigallocatechin gallate], where the note is “read-out: IC50”, the IC50 amounted to 0.97 µM.
